Here are results for twelve compounds from ChEMBL document CHEMBL4665629, “An optimised series of substituted N-phenylpyrrolamides as DNA gyrase B inhibitors” (Eur J Med Chem, 2019).

In brackets after ≈: the same amount, converted by molar mass.

In test [1] the test system is Escherichia coli. The test can be described thus: Antibacterial activity against efflux pump d effect ive Escherichia coli JW5503 harbouring tolC mutant assessed as bacterial growth inhibition at 50 uM incubated for 24 hrs by CLSI protocol based broth microdilution assay relative to control. It counts as functional. In general terms: In broth dilution the organism is exposed to a series of concentrations in liquid medium.

In test [2] the test system is Escherichia coli. Briefly: Antibacterial activity against outer membrane impaired Escherichia coli JD17464 harboring lpxC mutant assessed as bacterial growth inhibition at 50 uM incubated for 24 hrs by CLSI protocol based broth microdilution assay relative to control. It counts as functional.
For the next test, the system named is Pseudomonas aeruginosa. The test can be described thus: Antibacterial activity against Pseudomonas aeruginosa ATCC 27853 assessed as bacterial growth inhibition at 50 uM incubated for 24 hrs by CLSI protocol based broth microdilution assay relative to control. It counts as functional.
The subject of the next test is Staphylococcus aureus. Briefly: Antibacterial activity against Staphylococcus aureus ATCC 29213 assessed as bacterial growth inhibition at 50 uM incubated for 24 hrs by CLSI protocol based broth microdilution assay relative to control. It counts as functional.
Another test has as its system Klebsiella pneumoniae. The test can be described thus: Antibacterial activity against Klebsiella pneumoniae ATCC 700603 assessed as bacterial growth inhibition at 50 uM incubated for 24 hrs by CLSI protocol based broth microdilution assay relative to control. It counts as functional.
Test [3] has as its system Escherichia coli. Briefly: Antibacterial activity against Escherichia coli ATCC 25922 assessed as bacterial growth inhibition at 50 uM incubated for 24 hrs by CLSI protocol based broth microdilution assay relative to control. The format is functional.
Test [4] has as its system Enterococcus faecium. The test can be described thus: Antibacterial activity against Enterococcus faecium ATCC 35667 assessed as bacterial growth inhibition at 50 uM incubated for 24 hrs by CLSI protocol based broth microdilution assay relative to control. It counts as functional.
The next test concerns Klebsiella aerogenes. Briefly: Antibacterial activity against Enterobacter aerogenes ATCC 13408 assessed as bacterial growth inhibition at 50 uM incubated for 24 hrs by CLSI protocol based broth microdilution assay relative to control. It counts as functional.
Another test relates to Acinetobacter baumannii. Briefly: Antibacterial activity against Acinetobacter baumannii ATCC 19606 assessed as bacterial growth inhibition at 50 uM incubated for 24 hrs by CLSI protocol based broth microdilution assay relative to control. It counts as functional. The note with it: ATCC 19606 = CIP 70.34 = JCM 6841.
Test [5] has as its target Topoisomerase IV (Staphylococcus aureus) (UniProt P0C1U9+P0C1S7). The test can be described thus: Inhibition of Staphylococcus aureus DNA topoisomerase 4 assessed as residual activity at 1 uM using biotinylated oligonucleotide as substrate incubated for 30 mins in presence of ATP by fluorescence-based microplate reader assay relative to control. It counts as protein-complex assay.

A short description of test [6]: Inhibition of Escherichia coli DNA topoisomerase 4 assessed as residual activity at 1 uM using biotinylated oligonucleotide as substrate incubated for 30 mins in presence of ATP by fluorescence-based microplate reader assay relative to control.
The target in test [7] is DNA gyrase (Staphylococcus aureus) (UniProt P0A0K8+P20831). The test can be described thus: Inhibition of Staphylococcus aureus DNA gyrase assessed as residual activity at 1 uM using biotinylated oligonucleotide as substrate incubated for 30 mins in presence of ATP by fluorescence-based microplate reader assay relative to control. It counts as protein-complex assay.
Chain of DNA gyrase (Staphylococcus aureus) (P0A0K8 2-644 limits assumed): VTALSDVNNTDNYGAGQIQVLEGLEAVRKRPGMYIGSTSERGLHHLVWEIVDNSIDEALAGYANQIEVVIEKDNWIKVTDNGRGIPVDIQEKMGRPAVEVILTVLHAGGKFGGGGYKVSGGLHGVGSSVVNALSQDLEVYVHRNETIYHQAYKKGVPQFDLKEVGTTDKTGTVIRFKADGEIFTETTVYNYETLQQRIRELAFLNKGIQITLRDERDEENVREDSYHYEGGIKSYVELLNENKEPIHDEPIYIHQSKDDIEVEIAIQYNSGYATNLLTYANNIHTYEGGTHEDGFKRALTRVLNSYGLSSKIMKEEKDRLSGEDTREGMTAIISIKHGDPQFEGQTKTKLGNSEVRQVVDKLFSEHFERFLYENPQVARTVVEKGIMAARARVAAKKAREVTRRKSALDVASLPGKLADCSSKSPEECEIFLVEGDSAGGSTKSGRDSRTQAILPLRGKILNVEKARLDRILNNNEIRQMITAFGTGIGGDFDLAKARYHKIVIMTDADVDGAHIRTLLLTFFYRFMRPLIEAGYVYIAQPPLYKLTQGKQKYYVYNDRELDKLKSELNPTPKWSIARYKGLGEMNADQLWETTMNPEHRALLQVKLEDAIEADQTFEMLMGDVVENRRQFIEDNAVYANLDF
Chain of DNA gyrase (Staphylococcus aureus) (P20831 whole entry partner): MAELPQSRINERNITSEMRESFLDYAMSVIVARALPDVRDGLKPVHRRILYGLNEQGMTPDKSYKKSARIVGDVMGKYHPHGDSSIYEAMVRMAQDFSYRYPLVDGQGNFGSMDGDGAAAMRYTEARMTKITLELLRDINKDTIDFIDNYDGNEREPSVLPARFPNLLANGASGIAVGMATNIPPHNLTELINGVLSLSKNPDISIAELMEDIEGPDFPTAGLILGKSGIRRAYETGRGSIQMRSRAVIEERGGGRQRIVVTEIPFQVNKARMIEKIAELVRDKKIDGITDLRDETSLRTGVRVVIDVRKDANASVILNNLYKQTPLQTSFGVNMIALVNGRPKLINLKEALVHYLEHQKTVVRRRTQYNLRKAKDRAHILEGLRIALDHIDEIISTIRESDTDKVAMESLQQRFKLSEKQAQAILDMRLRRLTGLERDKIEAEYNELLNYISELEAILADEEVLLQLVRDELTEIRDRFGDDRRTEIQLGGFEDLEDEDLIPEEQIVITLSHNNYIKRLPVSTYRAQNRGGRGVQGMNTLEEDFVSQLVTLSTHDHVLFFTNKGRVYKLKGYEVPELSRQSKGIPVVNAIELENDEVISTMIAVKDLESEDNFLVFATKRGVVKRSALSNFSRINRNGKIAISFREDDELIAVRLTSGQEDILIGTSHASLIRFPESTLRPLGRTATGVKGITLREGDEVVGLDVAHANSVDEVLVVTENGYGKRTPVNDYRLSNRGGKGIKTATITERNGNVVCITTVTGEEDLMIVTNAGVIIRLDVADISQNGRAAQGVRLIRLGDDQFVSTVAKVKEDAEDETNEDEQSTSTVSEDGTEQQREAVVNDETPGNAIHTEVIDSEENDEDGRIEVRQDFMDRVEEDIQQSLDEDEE
In test [8] the target is DNA gyrase (Escherichia coli, UniProt P0AES4+P0AES6). Briefly: Inhibition of Escherichia coli DNA gyrase using biotinylated oligonucleotide as substrate incubated for 30 mins in presence of ATP by fluorescence-based microplate reader assay. It counts as protein-complex assay.
Test [9] relates to Escherichia coli. The test can be described thus: Antibacterial activity against efflux pump d effect ive Escherichia coli JW5503 harbouring tolC mutant assessed as minimum inhibitory concentration required for >=90% inhibition of bacterial growth by CLSI protocol based broth microdilution assay. It counts as functional.
In the next test the target is Topoisomerase IV (Staphylococcus aureus, UniProt P0C1S7+P0C1U9). Briefly: Inhibition of Staphylococcus aureus DNA topoisomerase 4 using biotinylated oligonucleotide as substrate incubated for 30 mins in presence of ATP by fluorescence-based microplate reader assay. It counts as protein-complex assay.
Chain of Topoisomerase IV (P0C1U9 whole entry): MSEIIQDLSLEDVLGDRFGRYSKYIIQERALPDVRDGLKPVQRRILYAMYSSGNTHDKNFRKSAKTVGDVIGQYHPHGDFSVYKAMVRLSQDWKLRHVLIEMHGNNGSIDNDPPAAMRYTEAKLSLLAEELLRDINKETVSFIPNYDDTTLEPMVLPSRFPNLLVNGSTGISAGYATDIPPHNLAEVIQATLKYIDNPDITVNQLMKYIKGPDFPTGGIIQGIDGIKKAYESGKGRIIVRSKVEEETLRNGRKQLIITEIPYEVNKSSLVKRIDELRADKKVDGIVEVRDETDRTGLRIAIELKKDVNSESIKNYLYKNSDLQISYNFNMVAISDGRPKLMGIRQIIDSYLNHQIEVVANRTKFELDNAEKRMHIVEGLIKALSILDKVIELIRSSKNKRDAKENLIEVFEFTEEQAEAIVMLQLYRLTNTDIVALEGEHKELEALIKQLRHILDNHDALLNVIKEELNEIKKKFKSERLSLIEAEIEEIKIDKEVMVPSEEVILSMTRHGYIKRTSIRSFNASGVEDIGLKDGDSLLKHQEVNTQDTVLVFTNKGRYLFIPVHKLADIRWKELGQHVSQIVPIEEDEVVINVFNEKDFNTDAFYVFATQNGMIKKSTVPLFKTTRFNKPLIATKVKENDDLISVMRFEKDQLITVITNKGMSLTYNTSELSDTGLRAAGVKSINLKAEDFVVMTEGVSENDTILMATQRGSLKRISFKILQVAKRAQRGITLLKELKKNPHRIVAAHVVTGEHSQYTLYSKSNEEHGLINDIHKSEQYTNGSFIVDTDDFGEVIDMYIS
Chain of Topoisomerase IV (P0C1S7 whole entry): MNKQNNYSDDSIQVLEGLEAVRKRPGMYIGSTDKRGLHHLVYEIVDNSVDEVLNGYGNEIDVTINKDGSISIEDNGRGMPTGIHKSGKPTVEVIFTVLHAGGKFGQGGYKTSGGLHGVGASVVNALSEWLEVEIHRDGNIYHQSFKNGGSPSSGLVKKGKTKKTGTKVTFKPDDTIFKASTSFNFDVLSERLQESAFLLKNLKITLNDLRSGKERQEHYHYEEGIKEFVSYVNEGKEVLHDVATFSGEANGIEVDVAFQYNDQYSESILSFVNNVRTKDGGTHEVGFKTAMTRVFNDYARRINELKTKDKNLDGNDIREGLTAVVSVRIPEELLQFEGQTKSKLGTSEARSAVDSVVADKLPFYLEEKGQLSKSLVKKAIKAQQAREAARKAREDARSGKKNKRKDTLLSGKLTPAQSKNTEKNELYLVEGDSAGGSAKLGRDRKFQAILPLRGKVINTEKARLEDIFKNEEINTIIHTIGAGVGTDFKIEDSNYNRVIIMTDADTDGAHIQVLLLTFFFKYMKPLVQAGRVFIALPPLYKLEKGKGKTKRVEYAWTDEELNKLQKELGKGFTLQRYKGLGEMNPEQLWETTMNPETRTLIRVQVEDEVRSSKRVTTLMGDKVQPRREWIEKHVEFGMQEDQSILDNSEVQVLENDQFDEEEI
A short description of test [10]: Inhibition of Escherichia coli DNA topoisomerase 4 using biotinylated oligonucleotide as substrate incubated for 30 mins in presence of ATP by fluorescence-based microplate reader assay.
Test [11] deals with DNA gyrase (Staphylococcus aureus, UniProt P0A0K8+P20831). The test can be described thus: Inhibition of Staphylococcus aureus DNA gyrase using biotinylated oligonucleotide as substrate incubated for 30 mins in presence of ATP by fluorescence-based microplate reader assay. The format is protein-complex assay.
Chain of DNA gyrase (Staphylococcus aureus, UniProt P0A0K8+P20831) (P0A0K8 whole entry): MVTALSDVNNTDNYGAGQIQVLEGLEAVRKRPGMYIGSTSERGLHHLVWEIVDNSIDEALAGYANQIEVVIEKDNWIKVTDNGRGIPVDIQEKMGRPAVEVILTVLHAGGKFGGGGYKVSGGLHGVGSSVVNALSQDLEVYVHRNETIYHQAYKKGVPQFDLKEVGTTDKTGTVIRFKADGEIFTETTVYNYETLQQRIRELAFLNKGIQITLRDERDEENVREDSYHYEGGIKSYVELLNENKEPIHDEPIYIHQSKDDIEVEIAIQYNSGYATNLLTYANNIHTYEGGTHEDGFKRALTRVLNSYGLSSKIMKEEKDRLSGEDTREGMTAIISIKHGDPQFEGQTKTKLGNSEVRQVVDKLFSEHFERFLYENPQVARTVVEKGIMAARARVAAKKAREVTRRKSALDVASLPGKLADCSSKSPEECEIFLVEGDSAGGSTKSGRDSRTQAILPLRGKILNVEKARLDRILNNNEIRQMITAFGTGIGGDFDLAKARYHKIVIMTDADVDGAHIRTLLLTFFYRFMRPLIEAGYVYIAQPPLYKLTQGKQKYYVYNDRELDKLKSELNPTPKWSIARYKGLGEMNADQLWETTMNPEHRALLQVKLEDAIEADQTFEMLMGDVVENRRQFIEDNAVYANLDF
Chain of DNA gyrase (Staphylococcus aureus, UniProt P0A0K8+P20831) (P20831 whole entry): as the sequence (P20831 whole entry partner) above
Another test has as its system Enterococcus faecalis. Briefly: Antibacterial activity against Enterococcus faecalis ATCC 29212 assessed as bacterial growth inhibition at 50 uM incubated for 24 hrs by CLSI protocol based broth microdilution assay relative to control. The format is functional.
The test system of test [12] is Enterococcus faecium. The test can be described thus: Antibacterial activity against Enterococcus faecium ATCC 35667 assessed as minimum inhibitory concentration required for >=90% inhibition of bacterial growth by CLSI protocol based broth microdilution assay. The format is functional.

By inhibition is commonly meant the change of the read-out against control, counted positive when it falls. As a reminder, the IC50 is the concentration that inhibits the measured activity by half. Turning to `Cc1[nH]c(C(=O)Nc2ccc(C(=O)N[C@H](C)C(=O)O)cc2OC2CCN(C(=O)OC(C)(C)C)CC2)c(Cl)c1Cl`, the inhibition at 50 µM is -8% with Escherichia coli [1]; 10% in the test with Escherichia coli [2]; -10% with Pseudomonas aeruginosa; -22% in the test with Staphylococcus aureus; -13% in the test on Klebsiella pneumoniae; -7% with Escherichia coli [3]. Moreover, the inhibition at 50 µM is 59% in the test with Enterococcus faecium [4], -5% in the test with Klebsiella aerogenes and 15% in the test on Acinetobacter baumannii. For the same compound, the figures for the Activity in test [5], in test [6] and in test [7] were 79%, 99% and 68%, respectively. Besides, the IC50 on DNA gyrase [8] was found to be 71 nM.
For orientation: MIC means the lowest concentration found to suppress growth. For the compound `COC(=O)[C@H](C)NC(=O)c1ccc(NC(=O)c2[nH]c(C)c(Cl)c2Cl)c(OC2CCNCC2)c1`, the inhibition at 50 µM is 99% in the test on Escherichia coli [1]; 24% in the test on Escherichia coli [2]; -1% in the test on Pseudomonas aeruginosa; 27% in the test on Staphylococcus aureus; 0% in the test with Klebsiella pneumoniae; 14% in the test on Escherichia coli [3]. In addition, the inhibition at 50 µM in the test on Enterococcus faecium [4] was 7%; in the test with Klebsiella aerogenes, -4%; in the test with Acinetobacter baumannii it was 21%. In the test with Escherichia coli [9], the MIC worked out at 6.25 µM (≈ 3.11 µg/mL). Also, the IC50 worked out at 3700 nM at Topoisomerase IV, 18000 nM in test [10], 1600 nM at DNA gyrase [11] and 40 nM at DNA gyrase [8].
Turning to `Cc1[nH]c(C(=O)Nc2ccc(C(=O)NCC(=O)O)cc2OC2CCN(C(=O)OC(C)(C)C)CC2)c(Cl)c1Cl`, the inhibition at 50 µM with Escherichia coli [1] is -5%; with Escherichia coli [2], -2%; in the test with Pseudomonas aeruginosa it was -3%; with Staphylococcus aureus it was -10%; with Klebsiella pneumoniae, -9%; with Escherichia coli [3], 9%. Besides, the inhibition at 50 µM with Enterococcus faecium [4] was -1%; in the test on Klebsiella aerogenes it was -8%; in the test with Acinetobacter baumannii it was -12%. Moreover, the IC50 at Topoisomerase IV is 7400 nM; in [10] it was 10000 nM; at DNA gyrase [11], 1010 nM; at DNA gyrase [8], 86 nM.
Turning to `Cc1[nH]c(C(=O)Nc2ccc(C(=O)N[C@@H](C)C(=O)O)cc2OC2CCNCC2)c(Cl)c1Cl`, the inhibition at 50 µM was 9% with Escherichia coli [1]; 12% in the test with Escherichia coli [2]; 9% with Pseudomonas aeruginosa; -11% in the test on Staphylococcus aureus; 5% in the test on Klebsiella pneumoniae; 7% in the test on Escherichia coli [3]. Besides, the inhibition at 50 µM in the test on Enterococcus faecium [4] is -10%; in the test on Klebsiella aerogenes it was -2%; in the test on Acinetobacter baumannii it was 2%. The half-inhibitory concentration (IC50) came to 690 nM at Topoisomerase IV, 9100 nM in [10], 99 nM on DNA gyrase [11] and 9.9 nM at DNA gyrase [8].
`Cc1[nH]c(C(=O)Nc2ccc3[nH]c(C(=O)O)cc3c2)c(Cl)c1Cl`: the inhibition at 50 µM is 99% with Escherichia coli [1]; 2% in the test with Escherichia coli [2]; -2% in the test on Pseudomonas aeruginosa; 6% with Staphylococcus aureus; -2% in the test with Klebsiella pneumoniae; 2% in the test with Escherichia coli [3]. The inhibition at 50 µM with Enterococcus faecium [4] was 20%; in the test on Enterococcus faecalis, 54%; in the test with Klebsiella aerogenes, 6%; with Acinetobacter baumannii, 3%. In the test with Escherichia coli [9], the MIC was found to be 12.5 µM (≈ 4.4 µg/mL). The IC50 on DNA gyrase [8] worked out at 98 nM.
For the compound `Cc1[nH]c(C(=O)Nc2ccc(C(=O)N[C@H](C)C(=O)O)cc2OC2CCNCC2)c(Cl)c1Cl`, the inhibition at 50 µM with Escherichia coli [1] was 35%; in the test with Escherichia coli [2] it was 14%; in the test on Pseudomonas aeruginosa, -3%; with Staphylococcus aureus, -1%; in the test on Klebsiella pneumoniae it was 5%; in the test on Escherichia coli [3], 1%. Also, the inhibition at 50 µM with Enterococcus faecium [4] is 3%; with Klebsiella aerogenes, -3%; with Acinetobacter baumannii, 5%. Also, the results for the IC50 (on Topoisomerase IV; in test [10]; on DNA gyrase [8]) were 960 nM, 15000 nM and 6.9 nM, respectively. The Activity in test [7] was 31%.
With `COC(=O)CNC(=O)c1ccc(NC(=O)c2[nH]c(C)c(Cl)c2Cl)c(O[C@H]2CCNC2)c1`, the inhibition at 50 µM with Escherichia coli [1] was 88%; with Escherichia coli [2], 26%; in the test on Pseudomonas aeruginosa it was 4%; in the test with Staphylococcus aureus it was 5%; in the test on Klebsiella pneumoniae, -5%; in the test with Escherichia coli [3], 4%. Besides, the inhibition at 50 µM in the test with Enterococcus faecium [4] was 13%; in the test on Klebsiella aerogenes, -3%; with Acinetobacter baumannii, 2%. For the same compound, the MIC in the test with Escherichia coli [9] amounted to 25 µM (≈ 11.7 µg/mL). For the same compound, the figures for the Activity in [5] and in test [6] were 94% and 90%, respectively. Also, the results for the IC50 on DNA gyrase [11] and on DNA gyrase [8] were 950 nM and 74 nM, respectively.
`Cc1[nH]c(C(=O)Nc2ccc(C(=O)NS(C)(=O)=O)cc2)c(Cl)c1Cl`: the inhibition at 50 µM was 73% in the test with Escherichia coli [1]; 4% in the test with Escherichia coli [2]; 3% in the test with Pseudomonas aeruginosa; 5% with Staphylococcus aureus; -2% with Klebsiella pneumoniae; 15% in the test on Escherichia coli [3]. For the same compound, the inhibition at 50 µM with Enterococcus faecium [4] was -3%; with Enterococcus faecalis it was 16%; in the test on Klebsiella aerogenes it was -8%; with Acinetobacter baumannii, 6%. Further, the Activity in [5] came out at 81%; in [6] it was 98%; in test [7], 55%. The concentration for half-maximal inhibition (IC50) at DNA gyrase [8] turned out to be 160 nM.
With `COC(=O)[C@@H](C)NC(=O)c1ccc(NC(=O)c2[nH]c(C)c(Cl)c2Cl)c(OC2CCNCC2)c1`, the inhibition at 50 µM with Escherichia coli [1] is 97%; in the test on Escherichia coli [2], 21%; in the test with Pseudomonas aeruginosa, 12%; in the test with Staphylococcus aureus, 8%; with Klebsiella pneumoniae it was -7%; in the test on Escherichia coli [3], 8%. In addition, the inhibition at 50 µM was 4% in the test with Enterococcus faecium [4], -2% in the test with Klebsiella aerogenes and 17% with Acinetobacter baumannii. For the same compound, the MIC with Escherichia coli [9] stood at 6.25 µM (≈ 3.11 µg/mL). The Activity in test [5] turned out to be 94%; in test [6], 89%; in test [7], 49%. Moreover, the IC50 at DNA gyrase [8] was determined as 48 nM.
In the case of `CC(=O)NC[C@H]1CN(c2ccc(N3CCOCC3)c(F)c2)C(=O)O1` [LINEZOLID], the MIC in the test on Enterococcus faecium [12] was found to be 11.9 µM (≈ 4 µg/mL).
As to `Cc1[nH]c(C(=O)Nc2ccc(C(=O)NCC(=O)O)cc2OC2CCNCC2)c(Cl)c1Cl`, the inhibition at 50 µM with Escherichia coli [1] is 37%; with Escherichia coli [2], 9%; in the test on Pseudomonas aeruginosa, 15%; in the test on Staphylococcus aureus it was 3%; in the test with Klebsiella pneumoniae it was 5%; with Escherichia coli [3], -2%. The inhibition at 50 µM in the test on Enterococcus faecium [4] was -1%; in the test on Klebsiella aerogenes it was 4%; with Acinetobacter baumannii it was 1%. The IC50 amounted to 3700 nM at Topoisomerase IV, 7200 nM in test [10], 960 nM on DNA gyrase [11] and 17 nM on DNA gyrase [8].
Regarding `O=C(O)CNC(=O)c1ccc(NC(=O)c2cc(Br)c(Br)[nH]2)c(OC2CCNCC2)c1`, the inhibition at 50 µM in the test on Escherichia coli [1] is -17%; in the test with Escherichia coli [2] it was 5%; with Pseudomonas aeruginosa, 2%; in the test on Staphylococcus aureus, 3%; with Klebsiella pneumoniae, 4%; in the test with Escherichia coli [3], -9%. The figures for the inhibition at 50 µM in the test on Enterococcus faecium [4], with Klebsiella aerogenes and with Acinetobacter baumannii were 2%, 3% and 1%, respectively. Moreover, the Activity in test [5] was found to be 100%; in test [6], 100%; in [7] it was 67%. For the same compound, the IC50 on DNA gyrase [8] was 20 nM.
